The experiment deals with SARS-CoV-2. The experiment is described as follows: microbe, parasite or virus in culture. As to conditions: Severe acute respiratory syndrome coronavirus 2, Vero C1008, 48 h.

Here are results for 45 molecules from ChEMBL document CHEMBL4651402, “Screening of ~5500 FDA-approved drugs and clinical candidates for anti-SARS-CoV-2 activity” (2021).

Consider `Cc1nc(N2CCN(C)CC2)c2nc(-c3ccccc3Cl)n(C3CCOCC3)c2n1` [LY2828360], for which the IC50 was more than 20 µM. In addition, for the setting “read-out: pIC50 (converted)”, the IC50 is more than 20 µM.
As for `N#CCC1CCN(c2nc(Nc3ccc(N4CCC(O)CC4)cc3)c3c(=O)[nH]ncc3n2)CC1` [GUSACITINIB], the IC50 was more than 20 µM. Further, for the setting “read-out: pIC50 (converted)”, the IC50 was more than 20 µM.
The molecule `O=C1Nc2ccccc2/C1=C1/Nc2ccccc2C1=O` [INDIRUBIN] gave an IC50 of more than 20 µM. The IC50 (read-out: pIC50 (converted)) is more than 20 µM.
For the molecule `CC(C)OC(=O)[C@H](C)N[P@@](=O)(OC[C@@]1(F)O[C@@H](n2ccc(=O)[nH]c2=O)[C@](C)(O)[C@@H]1O)Oc1ccccc1`, the IC50 is more than 20 µM. Moreover, under “read-out: pIC50 (converted)”, the IC50 was more than 20 µM.
Regarding `O=C1C(O)=C(O)C(=O)C(O)=C1O` [TETROQUINONE], the IC50 is more than 20 µM. The IC50 (read-out: pIC50 (converted)) was more than 20 µM.
Regarding `O=C(c1ccc2nonc2c1)N1CCOCC1` [CX-717], the IC50 is more than 20 µM. Also, the IC50 (read-out: pIC50 (converted)) is more than 20 µM.
`CCC[C@@H]1C[C@@H](C(=O)N[C@@H]([C@H]2O[C@H](SC)[C@H](O)[C@@H](O)[C@@H]2O)[C@@H](C)O)N(C)C1` had an IC50 of more than 20 µM. Under “read-out: pIC50 (converted)”, the IC50 was more than 20 µM.
The molecule `CCC(c1ccccc1)c1c(O)c2ccccc2oc1=O` (stereo not given) [PHENPROCOUMON] returned an IC50 of more than 20 µM. The IC50 (read-out: pIC50 (converted)) is more than 20 µM.
Turning to `COc1ccc2c(O[C@H]3C[C@@H]4C(=O)N[C@@]5(C(=O)NS(=O)(=O)C6CC6)C[C@@H]5/C=C\CCCCN(C)C(=O)[C@H]4C3)cc(-c3nc(C(C)C)cs3)nc2c1C` (single isomer, unassigned), the IC50 was more than 20 µM. Moreover, the IC50 (read-out: pIC50 (converted)) is more than 20 µM.
For the molecule `Cc1cnc(C(=O)NCCc2ccc(S(=O)(=O)NC(=O)NC3CCCCC3)cc2)cn1` [GLIPIZIDE], the IC50 is more than 20 µM. The IC50 (read-out: pIC50 (converted)) is more than 20 µM.
On to `CC(=O)Oc1ccc(C2(c3ccc(OC(C)=O)cc3)C(=O)Nc3ccccc32)cc1` [OXYPHENISATIN ACETATE], for which the IC50 is more than 20 µM. Moreover, the IC50 (read-out: pIC50 (converted)) is more than 20 µM.
In the case of `CC(=O)OCCN1CCN(CCCN2c3ccccc3Sc3ccc(Cl)cc32)CC1` [THIOPROPAZATE], the IC50 was more than 20 µM. Moreover, under “read-out: pIC50 (converted)”, the IC50 is more than 20 µM.
Molecule `CN1C[C@H]2C[C@@H]1CN2c1cc2c(cc1F)c(=O)c(C(=O)O)cn2C1CC1` yielded an IC50 of more than 20 µM. For the same molecule, the IC50 (read-out: pIC50 (converted)) is more than 20 µM.
`Nc1ccccc1NC(=O)c1ccc(CNc2nccc(-c3cccnc3)n2)cc1` [MOCETINOSTAT] gave an IC50 of more than 20 µM. The IC50 (read-out: pIC50 (converted)) was more than 20 µM.
Consider `COC(=O)C(O)c1ccccc1` (stereo not given) [MANDELIC ACID, METHYL ESTER], for which the IC50 was more than 20 µM. The IC50 (read-out: pIC50 (converted)) is more than 20 µM.
The molecule `CCC[C@]1(c2cccc(O)c2)CCN(C)C[C@@H]1C` displayed an IC50 of more than 20 µM. Besides, for the setting “read-out: pIC50 (converted)”, the IC50 was more than 20 µM.
On to `CC(=O)Nc1ncc([N+](=O)[O-])s1` [NITHIAMIDE], for which the IC50 was more than 20 µM. Besides, the IC50 (read-out: pIC50 (converted)) was more than 20 µM.
`CC(C)CCC[C@@H](C)[C@H]1CC[C@H]2[C@@H]3CC=C4CC(O)CC[C@]4(C)[C@H]3CC[C@]12C` (stereo not given in full) displayed an IC50 of more than 20 µM. Moreover, the IC50 (read-out: pIC50 (converted)) is more than 20 µM.
In the case of `CSCC1CN(/N=C/c2ccc([N+](=O)[O-])o2)C(=O)O1` (stereo not given), the IC50 is more than 20 µM. For the same molecule, the IC50 (read-out: pIC50 (converted)) is more than 20 µM.
For the molecule `CN(C)CCC(c1ccccc1)c1ccccn1` (stereo not given) [PHENIRAMINE], the IC50 was more than 20 µM. The IC50 (read-out: pIC50 (converted)) is more than 20 µM.
Regarding `Cc1c(NC(=O)C(C)N(C)C)c(=O)n(-c2ccccc2)n1C` (stereo not given), the IC50 is more than 20 µM. The IC50 (read-out: pIC50 (converted)) was more than 20 µM.
The molecule `C[C@@H](Oc1cc(-c2cnn(C3CCNCC3)c2)cnc1N)c1c(Cl)ccc(F)c1Cl` [CRIZOTINIB] yielded an IC50 of more than 20 µM. Moreover, the IC50 (read-out: pIC50 (converted)) is more than 20 µM.
Molecule `N[C@H](Cn1ccc(=O)c(O)c1)C(=O)O` had an IC50 of more than 20 µM. Besides, under “read-out: pIC50 (converted)”, the IC50 was more than 20 µM.
`CCOc1ccc2ccccc2c1C(=O)N[C@@H]1C(=O)N2[C@@H]1SC(C)(C)[C@@H]2C(=O)O` [NAFCILLIN] yielded an IC50 of more than 20 µM. The IC50 (read-out: pIC50 (converted)) is more than 20 µM.
On to `C[C@@H](N)C(=O)N[C@@H](Cc1ccccc1)C(=O)O`, for which the IC50 is more than 20 µM. In addition, the IC50 (read-out: pIC50 (converted)) is more than 20 µM.
As to `COc1ccc2[nH]cc(CCNC(C)=O)c2c1` [MELATONIN], the IC50 is more than 20 µM. Further, the IC50 (read-out: pIC50 (converted)) is more than 20 µM.
Consider `Cn1cnc2c(F)c(Nc3ccc(Br)cc3Cl)c(C(=O)NOCCO)cc21` [SELUMETINIB], for which the IC50 was more than 20 µM. Besides, where the note is “read-out: pIC50 (converted)”, the IC50 is more than 20 µM.
Consider `OC(Cn1ccnc1)c1ccc(CCc2ccccc2)cc1` (stereo not given) [DENZIMOL], for which the IC50 was more than 20 µM. Under “read-out: pIC50 (converted)”, the IC50 was more than 20 µM.
In the case of `C=CCN1CC[C@]23c4c5ccc(O)c4O[C@H]2C(=O)CC[C@@]3(O)[C@H]1C5` [NALOXONE], the IC50 is more than 20 µM. For the same molecule, the IC50 (read-out: pIC50 (converted)) is more than 20 µM.
The molecule `Cn1c(-c2ccc3c(c2)OCO3)cc(=O)c2ccccc21` [GRAVEOLINE] gave an IC50 of more than 20 µM. In addition, where the note is “read-out: pIC50 (converted)”, the IC50 was more than 20 µM.
For the molecule `CN(C)CCN1C(=O)c2ccccc2N(C)c2ccccc21` [DIBENZEPIN], the IC50 is more than 20 µM. In addition, the IC50 (read-out: pIC50 (converted)) was more than 20 µM.
The molecule `CNC[C@H](O)[C@@H](O)[C@H](O)[C@H](O)CO` [MEGLUMINE] had an IC50 of more than 20 µM. The IC50 (read-out: pIC50 (converted)) is more than 20 µM.
As for `CC(C)N(CCNC(=O)CN1CCCC1=O)C(C)C`, the IC50 was more than 20 µM. Also, the IC50 (read-out: pIC50 (converted)) was more than 20 µM.
Take `CCOc1nc2cccc(C(=O)O)c2n1Cc1ccc(-c2ccccc2-c2nnn[nH]2)cc1`: the IC50 is more than 20 µM. For the same molecule, the IC50 (read-out: pIC50 (converted)) was more than 20 µM.
Molecule `O=C(NCC1CCOCC1)c1cnc(Nc2ccc(Cl)cc2Cl)nc1C(F)(F)F` [GW842166X] returned an IC50 of more than 20 µM. In addition, the IC50 (read-out: pIC50 (converted)) is more than 20 µM.
With `O=C(O)COC(=O)Cc1ccccc1Nc1c(Cl)cccc1Cl` [ACECLOFENAC], the IC50 is more than 20 µM. Besides, the IC50 (read-out: pIC50 (converted)) is more than 20 µM.
The molecule `O=C(OC1Cc2c(O)cc(O)cc2O[C@@H]1c1ccc(O)c(O)c1)c1cc(O)c(O)c(O)c1` (stereo not given in full) returned an IC50 of more than 20 µM. In addition, the IC50 (read-out: pIC50 (converted)) was more than 20 µM.
`OC[C@H]1O[C@@H](c2ccc(Cl)c(Cc3ccc(O[C@H]4CCOC4)cc3)c2)[C@H](O)[C@@H](O)[C@@H]1O` [EMPAGLIFLOZIN] gave an IC50 of more than 20 µM. Under “read-out: pIC50 (converted)”, the IC50 is more than 20 µM.
Regarding `CC1(C)N=C(N)N=C(N)N1c1ccc(Cl)cc1` [CYCLOGUANIL], the IC50 was more than 20 µM. For the same molecule, the IC50 (read-out: pIC50 (converted)) was more than 20 µM.
In turn, `Nc1cccc2c1C(=O)N(C1CCC(=O)NC1=O)C2=O` (stereo not given) [POMALIDOMIDE] had an IC50 of more than 20 µM. Also, the IC50 (read-out: pIC50 (converted)) was more than 20 µM.
As for `C1CCN2CC3CC(CN4CCCCC34)C2C1` (stereo not given), the IC50 was more than 20 µM. Moreover, the IC50 (read-out: pIC50 (converted)) is more than 20 µM.
For `CC/C(=C(\CC)c1ccc(OP(=O)(O)O)cc1)c1ccc(OP(=O)(O)O)cc1`, the IC50 was more than 20 µM. For the same molecule, the IC50 (read-out: pIC50 (converted)) is more than 20 µM.
Take `Cc1ccccc1OCC(O)CNCCOc1ccc(C(N)=O)cc1` (stereo not given) [TOLAMOLOL]: the IC50 is more than 20 µM. The IC50 (read-out: pIC50 (converted)) was more than 20 µM.
`O=C(c1cccnc1)N1CCOCC1` [NICOPHOLINE] gave an IC50 of more than 20 µM. Besides, the IC50 (read-out: pIC50 (converted)) is more than 20 µM.
`C#C[C@]1(O)CC[C@H]2[C@@H]3CCc4cc(O)ccc4[C@H]3CC[C@@]21C` [ETHINYL ESTRADIOL]: the IC50 is more than 20 µM. Moreover, for the setting “read-out: pIC50 (converted)”, the IC50 is more than 20 µM.
